In patent US10676436B2, “NLRX1 ligands” (Landos Biopharma, Inc., priority 2018, dated 2020):

Test system: DSS model of colitis
Assay: DSS model of colitis (acute model of IBD)
Type: in vivo, mice
Protocol: Mice were given 8% (w/v) DSS in drinking water for seven days to induce disruption of the epithelial layer. At project initiation, mice were 8 weeks of age and began dosing 24 hours after being placed on 8% DSS. Mice were weighed and scored daily for symptoms of disease (diarrhea, rectal bleeding, rectal inflammation, overall behavior). Treatment administration. NX-13 was prepared within a 0.5% methylcellulose (12-15 cP) solution. Dosage used was 20 mg/kg delivered once daily. Mice were weighed on a weekly basis to update dosage formulation. Dosage was calculated based off mean body weights for each gender. Oral dosage was delivered by orogastric gavage of dosage in 0.2 mL volume. Colons were collected into RPMI/FBS buffer containing collagenase (300 U/mL) and DNase (50 U/mL) for digestion. Tissues were digested for 60 minutes under stirring at 37° C. Resultant cellular suspensions were filtered through 100 μm strainers, centrifuged (300×g, 8 min), and washed in fresh RPMI. Following filtration of the resulting single cell suspensions, immune cells were purified by Percoll gradient of cell-containing 40% Percoll overlayed onto 70% Percoll solution. After centrifugation, interphase was collected and washed to obtain enriched colonic lamina propria cell fractions. Cells were labeled with mixtures of extracellular (CD45, CD3, CD4, CD8, CD19, NK1.1, CD25, F4/80, CD11b, Gr1, CX3CR1, CD64) and intracellular (Tbet, RORγT, FOXP3, IFNγ, IL17, IL10) antibodies in a sequential live staining in 96-well plates. Data was acquired using a FACS Celesta flow cytometer with FACSDiva software. Total RNA from colon and cells was generated using the Qiagen RNeasy mini kit. cDNA was generated using the BioRad iScript cDNA synthesis kit. Standard curves were generated by serial dilution of purified product from a standard PCR reaction with Taq DNA polymerase followed by purification using the Qiagen MinElute PCR purification kit. Expression levels were obtained from quantitative real-time PCR with SybrGreen supermix on a BioRad CFX96 Thermal cycler followed by normalization to expression of β-actin.

[1] = day 7 of DSS challenge, qRT-PCR, normalized to beta-actin
[2] = oral 20 mg/kg, day 7 of DSS challenge, flow cytometry

For `Cc1cccc(Oc2cc(Oc3cccc(C)n3)cc(Oc3cccc(C)n3)c2)n1` [NX-13, 1,3,5-tris (6-methylpyridin-2-yloxy) benzene], the “expression of Ifng in the whole colon” value [1] was “reduced”, the “expression of Tnfa in the whole colon” value [1] was “reduced” and the “maximal observed reduction of disease activity” value (oral 20 mg/kg once daily, day 6) was 50%. For the same molecule, the “number of FOXP3+ regulatory CD4+ T cells” value (oral 20 mg/kg, colon) was “did not reduce”, the “reduction of Th1 cells in the colonic lamina propria” value [2] was “more than 50%” and the “reduction of neutrophils in the colonic lamina propria” value [2] was “more than 50%”.
